Like-named read-outs stand apart in the source and are kept apart here.
How the values were obtained:
[1] = system: MCF-7 cells; experiment: MTT assay, MCF-7; format: cell-based, human; settings: MTT, 72 h; mean ± SD; read-out: IC50 MCF-7
Experimental: (§1) The five employed cell lines were purchased from American Type Culture Collection (ATCC, Manassas, VA, USA) and maintained as already reported. MCF-7, MDA-MB-231, MCF-10A and Hek-293 were cultured, as indicated by Iacopetta et al.. SkBr3 cells were maintained in DMEM high glucose, supplemented with 10% FBS and 100 μg/mL penicillin/streptomycin.
(§2) MTT assays [Sigma Aldrich (St.Louis, MO, USA)] were used in order to determine the in vitro anticancer activities of all the target compounds, as already reported.The compounds were tested at different concentrations (0.1-1-10-20-40 µM) for 72 h. Results are represented as percent (%) of basal and the IC50 values were calculated using GraphPad Prism 9 (GraphPad Software, La Jolla, CA, USA).

[2] = system: SkBr3 cells; experiment: MTT assay, SkBr3; format: cell-based, human; settings: MTT, 72 h; mean ± SD; read-out: IC50 SkBr3
Experimental: as §1, §2

[3] = target: T1, human topoisomerase I (hTopo I) (Homo sapiens, UniProt P11387); experiment: hTopo I relaxation assay; format: biochemical; settings: 1 μM; supercoiled pHOT1, agarose gel
T1 construct: purchased TopoGEN, Port Orange, FL, USA
T1 sequence (P11387 whole entry): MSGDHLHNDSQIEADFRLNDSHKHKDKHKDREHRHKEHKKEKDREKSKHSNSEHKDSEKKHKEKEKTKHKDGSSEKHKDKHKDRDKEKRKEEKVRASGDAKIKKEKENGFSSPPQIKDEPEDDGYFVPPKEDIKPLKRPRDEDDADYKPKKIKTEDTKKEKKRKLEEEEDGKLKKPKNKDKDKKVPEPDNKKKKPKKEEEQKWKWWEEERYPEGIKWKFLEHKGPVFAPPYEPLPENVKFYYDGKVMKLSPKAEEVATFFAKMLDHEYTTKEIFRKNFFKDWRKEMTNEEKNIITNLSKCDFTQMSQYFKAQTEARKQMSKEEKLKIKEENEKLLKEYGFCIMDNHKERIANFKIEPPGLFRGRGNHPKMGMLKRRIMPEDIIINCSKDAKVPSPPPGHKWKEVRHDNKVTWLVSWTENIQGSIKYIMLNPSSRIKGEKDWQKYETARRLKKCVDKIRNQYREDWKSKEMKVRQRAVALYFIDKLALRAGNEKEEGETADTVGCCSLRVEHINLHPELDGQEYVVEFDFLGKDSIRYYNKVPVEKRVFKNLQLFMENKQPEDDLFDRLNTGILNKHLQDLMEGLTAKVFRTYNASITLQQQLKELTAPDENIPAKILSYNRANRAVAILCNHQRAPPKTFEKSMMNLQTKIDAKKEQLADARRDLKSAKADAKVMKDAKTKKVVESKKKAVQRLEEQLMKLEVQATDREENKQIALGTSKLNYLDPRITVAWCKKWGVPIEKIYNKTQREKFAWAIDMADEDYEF

[4] = target: T2, Labeled Rabbit Muscle Actin (Oryctolagus cuniculus, UniProt P68135); experiment: In vitro actin depolymerization assay; format: biochemical; settings: 5 µM
T2 construct: purchased Abcam (Actin Polymerization/Depolymerization Assay Kit)
Experimental: The ability of the tested compounds to interfere with the actin polymerization and depolymerization reaction was measured using an Actin Polymerization/Depolymerization Assay Kit purchased from Abcam, following the manufacturer’s instructions. […] For the polymerization assay, reconstituted actin was mixed with supplemented Buffer G and samples in a white 96-well plate and then the polymerization reaction was induced with the addition of the Buffer P supplemented with 10 mM ATP. The solution was mixed and the data acquisition started. For the Actin Depolymerization Assay, supplemented Buffers P and G were mixed and incubated in a white 96-well plate at room temperature for one hour to polymerize the actin, protected from light. Then samples were added and the data acquisition started. Latrunculin A and Cytochalasin B were used as control molecules at a concentration of 5 μM. For both the assays, the assembly of actin filaments was determined by measuring the fluorescence (Ex/Em: 365/410 nm) in kinetic mode for 1 h at room temperature using a microplate reader.

[5] = system: β-actin in MCF-7 cells; experiment: Actin immunofluorescence, MCF-7; format: cell-based, human; settings: 24 h; compound 6 at its IC50 value, LA 0.1 µM
Experimental: (§3) The MitoTracker Deep Red FM probe (MitoTracker Mitochondrion-Selective Probes, Invitrogen European Headquarters, Paisley, PA4 9RF, UK) was used for mitochondrial staining, as previously described. For immunofluorescence analysis, the cells were seeded and further processed, as reported by Iacopetta et al.. The primary antibodies used were: rabbit anti-β-Actin and vimentin (Santa Cruz Biotechnology, Dallas, TX, USA), mouse anti cytochrome c and NF-κB p65 (Abcam, Cambridge, UK), diluted 1:100 in bovine serum albumin (BSA) 2% overnight at 4 °C. The secondary antibodies were: Alexa Fluor® 488 conjugate goat-anti-rabbit and Alexa Fluor® 568 conjugate goat-anti-mouse (Thermo Fisher Scientific, MA, USA), diluted 1:500 and incubated for 2h at 37 °C. DAPI 0.2 μg/mL (Sigma Aldrich, Milan, Italy) was used for nuclei staining. […] All the images were acquired and processed using the LAS-X software.

[6] = system: β-actin in MCF-10A cells; experiment: Actin immunofluorescence, MCF-10A; format: cell-based, human
Experimental: as §3
E: Figure S1. Actin immunofluorescence studies in MCF-10A cells […]
Figure S1. Actin immunofluorescence studies. M CF-10A cells were treat ed with compounds 1 and […]
treatment, the cells were methanol fixed, incubated with primary and secondary antibodies, stained with DAPI and observed and imaged under the inverted fluorescence microscope at 20x […]
A: nuclear stain with DAPI (λex/λem = 350/460 nm); Panels B: β-actin ([…]); Panels C: show a merge. R epresentative fields are shown.

[7] = system: caspases 3/7, 8, and 9 in MCF-7 cells; experiment: Caspase-Glo assay, MCF-7; format: cell-based, human; settings: IC50 value, 24 h; vs vehicle
Experimental: (§4) The activities of caspases 3/7, 8, and 9 were measured by using the Caspase-Glo Assay according to the manufacturer’s guidelines (Caspase-Glo 3/7, 8, and 9 Assay Systems, Promega Corporation, Madison, WI, USA), as already described. The luminescence was detected in a plate-reading luminometer (Synergy H1 Hybrid Reader, BioTek) for 30 min to 3 h (λex/em = 490/570 nm). Results were reported as signal-to-noise ratio (background was determined from the culture medium without cells). The experiments were performed in triplicate.

[8] = system: caspases 3/7, 8, and 9 in MCF-10A cells; experiment: Caspase-Glo assay, MCF-10A; format: cell-based, human; settings: IC50 values, 24 h; vs vehicle
Experimental: as §4
H: Figure S4. Caspases activity in MCF-10A cells
Caspase 3/7 Caspase 8 Caspase 9
Figure S4. Caspases activity.
between th e vehicl e-treated cells, us ed as control, and the cells treated with compounds 1 and 6. Both
The data are representative of […]

[9] = system: cytochrome c in MCF-10A cells; experiment: Mitochondria staining and cytochrome c detection, MCF-10A; format: cell-based, human; settings: IC50 value, 24 h
Experimental: as §3
I: Figure S5. Mitochondria staining and cytochrome c detection in MCF-10A cells
Figure S5. Mitochondria staining and cytochrome c detection in MCF-10A cells. Figure S5.
Mitochondria staining and cytochrome c detection in MCF-10A cells. In th e CTRL cells as well as
Panels A, DAP I λex/em= 350/460 nm; Panels B, Alexa Fluor CF 488 λex/em=
490/515 nm; Panels C, MitoTracker Deep Red FM probe λex/em= 644/665 nm. Panels D: overlay
channels. Images were acquired at 40x magnification and representative fields are shown.

[10] = system: NF-κB in MCF-7 cells; experiment: NF-κB immunofluorescence, MCF-7; format: cell-based, human; settings: IC50 value, 24 h
Experimental: as §3

[11] = system: β-actin in MDA-MB-231 cells; experiment: Actin immunofluorescence, MDA-MB-231; format: cell-based, human; settings: 24 h; compound 1 at its IC50 value, LA 0.1 µM
Experimental: as §3

[12] = system: caspases 3/7, 8, and 9 in MDA-MB-231 cells; experiment: Caspase-Glo assay, MDA-MB-231; format: cell-based, human; settings: IC50 value, 24 h; vs vehicle
Experimental: as §4

[13] = system: cytochrome c in MDA-MB-231 cells; experiment: Mitochondria staining and cytochrome c detection, MDA-MB-231; format: cell-based, human; settings: IC50 value, 24 h
Experimental: as §3

[14] = system: Hek-293 cells; experiment: MTT assay, normal Hek-293; format: cell-based, human; settings: up to the concentration of 200 μM

Compound	IC50 [1] [µM]	IC50 [2] [µM]	inhibition of hTopo I supercoil relaxing activity [3]	effect on already polymerized actin (in words) [4]	actin organization in MCF-7 cells [5]	actin organization in MCF-10A cells [6]	caspase-3 and -7 activity, MCF-7 [7]	caspase-8 activity, MCF-7 [7]	caspase-9 activity, MCF-7 [7]	caspases 3/7, 8 and 9 activity levels, MCF-10A [8]	cytochrome c localization, MCF-10A [9]	NF-κB translocation, MCF-7 [10]	actin organization in MDA-MB-231 cells [11]	actin organization in MCF-10A cells ([6]; 24 h, compounds at their IC50 value, LA 0.1 μM)	caspase-3 and -7 activity, MDA-MB-231 [12]	caspase-8 activity, MDA-MB-231 [12]	caspase-9 activity, MDA-MB-231 [12]	cytochrome c localization, MDA-MB-231 [13]	cytotoxicity against the normal Hek-293 cells (in words) [14]
CC(=O)[O-].Cn1c(Cl)c(Cl)n(CC(O)c2ccccc2)[c]1=[Au+]=[c]1n(C)c(Cl)c(Cl)n1CC(O)c1ccccc1 (stereo not shown) [Compound 6, Bis [4,5-dichloro-(N-methyl, N’(2-hydroxy-2-phenyl-ethyl)imidazole-2-ylidine]gold(I)] acetate]	1.2 ± 0.3	2.3 ± 0.9	totally inhibit	did not produce a significant decrease	actin bundles appeared thicker and dramatically packed into the cytoplasm	normal	clear increase	significant rise	no increase	No differences	within mitochondria	reduced the translocation of NF-κB from the cytoplasm to the nucleus							
Cn1ccn(CC([O-])c2ccccc2)[c]1=[Au+]=[c]1n(C)ccn1CC([O-])c1ccccc1.[Cl-].[Na+].[Na+] (stereo not shown) [Compound 1]	29.9 ± 1.1	83 ± 1	totally inhibit	did not produce a significant decrease						No differences	within mitochondria		altered actin bundles organization	normal	clear increase	significant rise	no increase	cytochrome c is localized within mitochondria	complete lack of cytotoxicity
